Measured values as given in patent US9738634B2, “Heterocyclic amide compound and herbicide” (SYNGENTA PARTICIPATIONS AG, priority 2013, dated 2017).

Tests used:
Type in all cases: in vivo
[1] = system: black-grass; test: Test Example 3: weedkilling efficacy through soil treatment; H: black-grass; details: treatment dosage 315 g/ha
How it was run: (§1)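 Crop and weed responses were judged three weeks after a uniform surface spray of the water-diluted emulsion at the given g/ha rate. Seeds sat beneath about 1.5 cm of sterilized diluvial soil, and boxes stood in a greenhouse at 25 to 30° C.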

[2] = system: bulrush; test: Test Example 1: weedkilling efficacy, preemergent weed treatment in the submerged state; B: bulrush; details: treatment dosage 252 g/ha
How it was run: (§2)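 Alluvial soil in Wagner pots flooded to 4 cm; barnyard grass, bulrush and oval-leafed pondweed seeds sown, then 2.5-leaf rice seedlings transplanted. Same day, emulsified compound diluted in water to set g/ha dosages and applied to water surface; greenhouse 25–30 °C, effect scored by criteria after 3 weeks.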

[3] = system: Italian ryegrass; test: Test Example 3: weedkilling efficacy through soil treatment; I: Italian ryegrass; details: treatment dosage 315 g/ha
How it was run: as §1

[4] = system: chickweed; test: Test Example 3: weedkilling efficacy through soil treatment; N: chickweed; details: treatment dosage 315 g/ha
How it was run: as §1

[5] = system: barnyard grass; test: Test Example 2: weedkilling efficacy, growth period weed treatment in the submerged state; A: barnyard grass; details: treatment dosage 252 g/ha
How it was run: (§3)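 First, alluvial soil in pots is flooded to 4 cm and mixed seed is sown. Next, plants grow in a greenhouse at 25 to 30° C until the 1-2 leaf stage. Then diluted emulsion is applied onto the water surface at the given g/ha rate, and injury is assessed after 3 weeks.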

[6] = system: soybean; test: Test Example 3: soil treatment, effect on crop; d: soybean; details: treatment dosage 315 g/ha
How it was run: as §1

[7] = system: directly sown rice; test: Test Example 4: foliar treatment, effect on crop; b: directly sown rice; details: treatment dosage 315 g/ha
How it was run: (§4)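 Seeds are spot-sown into sterilized diluvial soil and covered with about 1.5 cm of soil. After 14 days' greenhouse growth at 25 to 30° C, plants are sprayed on stems and leaves with diluted emulsion at the stated g/ha rate, then scored at 3 weeks.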

[8] = system: crabgrass; test: Test Example 3: weedkilling efficacy through soil treatment; D: crabgrass; details: treatment dosage 315 g/ha
How it was run: as §1

[9] = system: catchweed; test: Test Example 3: weedkilling efficacy through soil treatment; O: catchweed; details: treatment dosage 315 g/ha
How it was run: as §1

[10] = system: green foxtail; test: Test Example 3: weedkilling efficacy through soil treatment; E: green foxtail; details: treatment dosage 315 g/ha
How it was run: as §1

[11] = system: beet; test: Test Example 4: foliar treatment, effect on crop; f: beet; details: treatment dosage 315 g/ha
How it was run: as §4

[12] = system: redroot pigweed; test: Test Example 4: weedkilling efficacy by foliar treatment; L: redroot pigweed; details: treatment dosage 315 g/ha
How it was run: as §4

[13] = system: oval-leafed pondweed; test: Test Example 1: weedkilling efficacy, preemergent weed treatment in the submerged state; C: oval-leafed pondweed; details: treatment dosage 252 g/ha
How it was run: as §2

[14] = system: catchweed; test: Test Example 4: weedkilling efficacy by foliar treatment; O: catchweed; details: treatment dosage 315 g/ha
How it was run: as §4

[15] = system: birds-eye speedwell; test: Test Example 3: weedkilling efficacy through soil treatment; p: birds-eye speedwell; details: treatment dosage 315 g/ha
How it was run: as §1

[16] = system: Italian ryegrass; test: Test Example 4: weedkilling efficacy by foliar treatment; I: Italian ryegrass; details: treatment dosage 315 g/ha
How it was run: as §4

[17] = system: transplanted rice; test: Test Example 1: preemergent weed treatment in the submerged state, effect on crop; a: transplanted rice; details: treatment dosage 252 g/ha
How it was run: as §2

[18] = system: corn; test: Test Example 3: soil treatment, effect on crop; c: corn; details: treatment dosage 315 g/ha
How it was run: as §1

[19] = system: chickweed; test: Test Example 4: weedkilling efficacy by foliar treatment; N: chickweed; details: treatment dosage 315 g/ha
How it was run: as §4

[20] = system: wild oat; test: Test Example 3: weedkilling efficacy through soil treatment; G: wild oat; details: treatment dosage 315 g/ha
How it was run: as §1

[21] = system: corn; test: Test Example 4: foliar treatment, effect on crop; c: corn; details: treatment dosage 315 g/ha
How it was run: as §4

[22] = system: oval-leafed pondweed; test: Test Example 2: weedkilling efficacy, growth period weed treatment in the submerged state; C: oval-leafed pondweed; details: treatment dosage 252 g/ha
How it was run: as §3

[23] = system: bulrush; test: Test Example 2: weedkilling efficacy, growth period weed treatment in the submerged state; B: bulrush; details: treatment dosage 252 g/ha
How it was run: as §3

[24] = system: black-grass; test: Test Example 4: weedkilling efficacy by foliar treatment; H: black-grass; details: treatment dosage 315 g/ha
How it was run: as §4

[25] = system: Indian mallow; test: Test Example 4: weedkilling efficacy by foliar treatment; K: Indian mallow; details: treatment dosage 315 g/ha
How it was run: as §4

[26] = system: fig-leafed goosefoot; test: Test Example 4: weedkilling efficacy by foliar treatment; M: fig-leafed goosefoot; details: treatment dosage 315 g/ha
How it was run: as §4

[27] = system: Indian mallow; test: Test Example 3: weedkilling efficacy through soil treatment; K: Indian mallow; details: treatment dosage 315 g/ha
How it was run: as §1

[28] = system: directly sown rice; test: Test Example 3: soil treatment, effect on crop; b: directly sown rice; details: treatment dosage 315 g/ha
How it was run: as §1

[29] = system: beet; test: Test Example 3: soil treatment, effect on crop; f: beet; details: treatment dosage 315 g/ha
How it was run: as §1

[30] = system: fig-leafed goosefoot; test: Test Example 3: weedkilling efficacy through soil treatment; M: fig-leafed goosefoot; details: treatment dosage 315 g/ha
How it was run: as §1

[31] = system: wheat; test: Test Example 3: soil treatment, effect on crop; e: wheat; details: treatment dosage 315 g/ha
How it was run: as §1

[32] = system: green foxtail; test: Test Example 4: weedkilling efficacy by foliar treatment; E: green foxtail; details: treatment dosage 315 g/ha
How it was run: as §4

[33] = system: wild oat; test: Test Example 4: weedkilling efficacy by foliar treatment; G: wild oat; details: treatment dosage 315 g/ha
How it was run: as §4

[34] = system: barnyard grass; test: Test Example 1: weedkilling efficacy, preemergent weed treatment in the submerged state; A: barnyard grass; details: treatment dosage 252 g/ha
How it was run: as §2

[35] = system: birds-eye speedwell; test: Test Example 4: weedkilling efficacy by foliar treatment; p: birds-eye speedwell; details: treatment dosage 315 g/ha
How it was run: as §4

[36] = system: soybean; test: Test Example 4: foliar treatment, effect on crop; d: soybean; details: treatment dosage 315 g/ha
How it was run: as §4

[37] = system: crabgrass; test: Test Example 4: weedkilling efficacy by foliar treatment; D: crabgrass; details: treatment dosage 315 g/ha
How it was run: as §4

[38] = system: wheat; test: Test Example 4: foliar treatment, effect on crop; e: wheat; details: treatment dosage 315 g/ha
How it was run: as §4

[39] = system: redroot pigweed; test: Test Example 3: weedkilling efficacy through soil treatment; L: redroot pigweed; details: treatment dosage 315 g/ha
How it was run: as §1

CC1=C(c2ccccc2)C(=O)N(C(C)(C)C(=O)Nc2nnc(C(F)(F)F)s2)CO1 [B-1-10]
H (black-grass) weedkilling efficacy grade [1]: 5 (weed kill ratio 90% or more, (practically complete withering)) | B (bulrush) weedkilling efficacy grade [2]: 5 (weed kill ratio 90% or more, (practically complete withering)) | I (Italian ryegrass) weedkilling efficacy grade [3]: 3 (weed kill ratio 40% or more, less than 70%) | N (chickweed) weedkilling efficacy grade [4]: 2 (weed kill ratio 20% or more, less than 40%) | A (barnyard grass) weedkilling efficacy grade [5]: 4 (weed kill ratio 70% or more, less than 90%) | d (soybean) effect on crop grade [6]: 0 (weed kill ratio 5% or less (practically no effect)) | b (directly sown rice) effect on crop grade [7]: 5 (weed kill ratio 90% or more, (practically complete withering)) | D (crabgrass) weedkilling efficacy grade [8]: 5 (weed kill ratio 90% or more, (practically complete withering)) | O (catchweed) weedkilling efficacy grade [9]: 0 (weed kill ratio 5% or less (practically no effect)) | E (green foxtail) weedkilling efficacy grade [10]: 5 (weed kill ratio 90% or more, (practically complete withering)) | f (beet) effect on crop grade [11]: 2 (weed kill ratio 20% or more, less than 40%) | L (redroot pigweed) weedkilling efficacy grade [12]: 2 (weed kill ratio 20% or more, less than 40%) | C (oval-leafed pondweed) weedkilling efficacy grade [13]: 5 (weed kill ratio 90% or more, (practically complete withering)) | O (catchweed) weedkilling efficacy grade [14]: 2 (weed kill ratio 20% or more, less than 40%) | P (birds-eye speedwell) weedkilling efficacy grade [15]: 4 (weed kill ratio 70% or more, less than 90%) | I (Italian ryegrass) weedkilling efficacy grade [16]: 0 (weed kill ratio 5% or less (practically no effect)) | a (transplanted rice) effect on crop grade [17]: 3 (weed kill ratio 40% or more, less than 70%) | c (corn) effect on crop grade [18]: 3 (weed kill ratio 40% or more, less than 70%) | N (chickweed) weedkilling efficacy grade [19]: 2 (weed kill ratio 20% or more, less than 40%) | G (wild oat) weedkilling efficacy grade [20]: 4 (weed kill ratio 70% or more, less than 90%) | c (corn) effect on crop grade [21]: 4 (weed kill ratio 70% or more, less than 90%) | C (oval-leafed pondweed) weedkilling efficacy grade [22]: 5 (weed kill ratio 90% or more, (practically complete withering)) | B (bulrush) weedkilling efficacy grade [23]: 5 (weed kill ratio 90% or more, (practically complete withering)) | H (black-grass) weedkilling efficacy grade [24]: 4 (weed kill ratio 70% or more, less than 90%) | K (Indian mallow) weedkilling efficacy grade [25]: 4 (weed kill ratio 70% or more, less than 90%) | M (fig-leafed goosefoot) weedkilling efficacy grade [26]: 3 (weed kill ratio 40% or more, less than 70%) | K (Indian mallow) weedkilling efficacy grade [27]: 3 (weed kill ratio 40% or more, less than 70%) | b (directly sown rice) effect on crop grade [28]: 5 (weed kill ratio 90% or more, (practically complete withering)) | f (beet) effect on crop grade [29]: 3 (weed kill ratio 40% or more, less than 70%) | M (fig-leafed goosefoot) weedkilling efficacy grade [30]: 3 (weed kill ratio 40% or more, less than 70%) | e (wheat) effect on crop grade [31]: 0 (weed kill ratio 5% or less (practically no effect)) | E (green foxtail) weedkilling efficacy grade [32]: 5 (weed kill ratio 90% or more, (practically complete withering)) | G (wild oat) weedkilling efficacy grade [33]: 2 (weed kill ratio 20% or more, less than 40%) | A (barnyard grass) weedkilling efficacy grade [34]: 5 (weed kill ratio 90% or more, (practically complete withering)) | P (birds-eye speedwell) weedkilling efficacy grade [35]: 4 (weed kill ratio 70% or more, less than 90%) | d (soybean) effect on crop grade [36]: 2 (weed kill ratio 20% or more, less than 40%) | D (crabgrass) weedkilling efficacy grade [37]: 5 (weed kill ratio 90% or more, (practically complete withering)) | e (wheat) effect on crop grade [38]: 0 (weed kill ratio 5% or less (practically no effect)) | L (redroot pigweed) weedkilling efficacy grade [39]: 3 (weed kill ratio 40% or more, less than 70%)
